Where two headings read alike, the source gives them in different places.
Key:
SMARCA2 = SMARCA2 (Homo sapiens, UniProt P51531); test: HiBiT assay for protein degradation, Hela SMARCA2-HiBiT cells (A series); assay type: cell-based; set-up: Hela cells were genetically modified via CRISPR/Cas9 to fuse HiBiT to the carboxy terminus of SMARCA2; host or cells: HeLa (CRISPR/Cas9 HiBiT knock-in); settings: for DC50: read-out: SMARC A2 Hela HiBit DC50; for Dmax: read-out: SMARC A2 Hela HiBit Dmax (%);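 as to SMARC A2 Hela HiBit Dmax (%): 24 h compound treatment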
Sequence of SMARCA2 (P51531 whole entry, the tested form may be a part): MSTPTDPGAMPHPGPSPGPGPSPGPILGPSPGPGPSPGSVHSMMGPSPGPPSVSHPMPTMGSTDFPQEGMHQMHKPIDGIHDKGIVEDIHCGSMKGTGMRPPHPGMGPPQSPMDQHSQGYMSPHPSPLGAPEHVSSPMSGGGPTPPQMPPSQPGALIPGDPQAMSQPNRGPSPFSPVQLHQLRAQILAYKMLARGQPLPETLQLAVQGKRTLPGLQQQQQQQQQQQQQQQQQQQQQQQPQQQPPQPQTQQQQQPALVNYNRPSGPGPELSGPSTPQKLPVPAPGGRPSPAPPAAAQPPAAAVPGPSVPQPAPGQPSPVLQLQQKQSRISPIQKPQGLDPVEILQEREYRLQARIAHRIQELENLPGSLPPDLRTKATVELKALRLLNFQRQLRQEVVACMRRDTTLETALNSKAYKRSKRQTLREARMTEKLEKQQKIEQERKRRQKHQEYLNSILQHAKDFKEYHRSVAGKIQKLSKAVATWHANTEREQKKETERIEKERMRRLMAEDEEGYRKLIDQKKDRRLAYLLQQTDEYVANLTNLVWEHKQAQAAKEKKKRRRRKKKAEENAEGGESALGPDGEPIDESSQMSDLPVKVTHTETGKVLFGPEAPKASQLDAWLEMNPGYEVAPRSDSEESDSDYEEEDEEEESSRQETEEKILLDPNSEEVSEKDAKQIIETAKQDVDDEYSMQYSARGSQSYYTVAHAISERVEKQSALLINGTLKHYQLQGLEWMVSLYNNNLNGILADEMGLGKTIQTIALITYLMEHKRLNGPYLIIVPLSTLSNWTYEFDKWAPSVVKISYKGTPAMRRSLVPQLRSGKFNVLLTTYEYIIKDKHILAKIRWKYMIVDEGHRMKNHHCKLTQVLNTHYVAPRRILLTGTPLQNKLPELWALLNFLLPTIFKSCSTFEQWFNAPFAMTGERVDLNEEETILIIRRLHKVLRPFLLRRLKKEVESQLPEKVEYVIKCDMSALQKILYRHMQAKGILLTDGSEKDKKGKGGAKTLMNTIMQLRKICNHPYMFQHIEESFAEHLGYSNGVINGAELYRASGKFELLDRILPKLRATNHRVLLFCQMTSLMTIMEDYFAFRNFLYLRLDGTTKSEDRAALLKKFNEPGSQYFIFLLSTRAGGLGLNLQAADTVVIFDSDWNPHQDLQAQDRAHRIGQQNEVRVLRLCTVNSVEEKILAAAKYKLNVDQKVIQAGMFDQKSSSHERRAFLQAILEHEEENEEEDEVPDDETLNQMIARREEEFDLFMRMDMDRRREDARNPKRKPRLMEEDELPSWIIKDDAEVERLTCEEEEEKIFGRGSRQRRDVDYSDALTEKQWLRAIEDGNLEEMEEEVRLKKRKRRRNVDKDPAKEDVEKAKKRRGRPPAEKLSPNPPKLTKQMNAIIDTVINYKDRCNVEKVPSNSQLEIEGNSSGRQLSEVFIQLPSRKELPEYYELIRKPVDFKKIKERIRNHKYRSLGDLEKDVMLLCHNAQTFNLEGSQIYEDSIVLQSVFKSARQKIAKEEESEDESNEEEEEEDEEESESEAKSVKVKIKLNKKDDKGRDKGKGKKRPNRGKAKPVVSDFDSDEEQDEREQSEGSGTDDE
In short: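 HeLa cells engineered by CRISPR/Cas9 to carry a HiBiT tag fused to the C-terminus of SMARCA2 (Promega CS302365) were grown in DMEM supplemented with FBS and penicillin-streptomycin. After treatment, remaining SMARCA2 protein was quantified with the Nano-Glo® HiBiT Lytic Detection Assay (Promega N3050), and curves were fitted in GraphPad Prism.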

SMARCA4 = SMARCA4 (Homo sapiens, UniProt P51532); test: HiBiT assay for protein degradation, Hela SMARCA4-HiBiT cells (A series); assay type: cell-based; set-up: fuse HiBiT to the carboxy terminus of SMARCA2 (Promega CS302365) or SMARCA4 (Promega CS3023225); host or cells: HeLa (CRISPR/Cas9 HiBiT knock-in); settings: for DC50: read-out: SMARC A4 Hela HiBit DC50
Sequence of SMARCA4 (P51532 whole entry, the tested form may be a part): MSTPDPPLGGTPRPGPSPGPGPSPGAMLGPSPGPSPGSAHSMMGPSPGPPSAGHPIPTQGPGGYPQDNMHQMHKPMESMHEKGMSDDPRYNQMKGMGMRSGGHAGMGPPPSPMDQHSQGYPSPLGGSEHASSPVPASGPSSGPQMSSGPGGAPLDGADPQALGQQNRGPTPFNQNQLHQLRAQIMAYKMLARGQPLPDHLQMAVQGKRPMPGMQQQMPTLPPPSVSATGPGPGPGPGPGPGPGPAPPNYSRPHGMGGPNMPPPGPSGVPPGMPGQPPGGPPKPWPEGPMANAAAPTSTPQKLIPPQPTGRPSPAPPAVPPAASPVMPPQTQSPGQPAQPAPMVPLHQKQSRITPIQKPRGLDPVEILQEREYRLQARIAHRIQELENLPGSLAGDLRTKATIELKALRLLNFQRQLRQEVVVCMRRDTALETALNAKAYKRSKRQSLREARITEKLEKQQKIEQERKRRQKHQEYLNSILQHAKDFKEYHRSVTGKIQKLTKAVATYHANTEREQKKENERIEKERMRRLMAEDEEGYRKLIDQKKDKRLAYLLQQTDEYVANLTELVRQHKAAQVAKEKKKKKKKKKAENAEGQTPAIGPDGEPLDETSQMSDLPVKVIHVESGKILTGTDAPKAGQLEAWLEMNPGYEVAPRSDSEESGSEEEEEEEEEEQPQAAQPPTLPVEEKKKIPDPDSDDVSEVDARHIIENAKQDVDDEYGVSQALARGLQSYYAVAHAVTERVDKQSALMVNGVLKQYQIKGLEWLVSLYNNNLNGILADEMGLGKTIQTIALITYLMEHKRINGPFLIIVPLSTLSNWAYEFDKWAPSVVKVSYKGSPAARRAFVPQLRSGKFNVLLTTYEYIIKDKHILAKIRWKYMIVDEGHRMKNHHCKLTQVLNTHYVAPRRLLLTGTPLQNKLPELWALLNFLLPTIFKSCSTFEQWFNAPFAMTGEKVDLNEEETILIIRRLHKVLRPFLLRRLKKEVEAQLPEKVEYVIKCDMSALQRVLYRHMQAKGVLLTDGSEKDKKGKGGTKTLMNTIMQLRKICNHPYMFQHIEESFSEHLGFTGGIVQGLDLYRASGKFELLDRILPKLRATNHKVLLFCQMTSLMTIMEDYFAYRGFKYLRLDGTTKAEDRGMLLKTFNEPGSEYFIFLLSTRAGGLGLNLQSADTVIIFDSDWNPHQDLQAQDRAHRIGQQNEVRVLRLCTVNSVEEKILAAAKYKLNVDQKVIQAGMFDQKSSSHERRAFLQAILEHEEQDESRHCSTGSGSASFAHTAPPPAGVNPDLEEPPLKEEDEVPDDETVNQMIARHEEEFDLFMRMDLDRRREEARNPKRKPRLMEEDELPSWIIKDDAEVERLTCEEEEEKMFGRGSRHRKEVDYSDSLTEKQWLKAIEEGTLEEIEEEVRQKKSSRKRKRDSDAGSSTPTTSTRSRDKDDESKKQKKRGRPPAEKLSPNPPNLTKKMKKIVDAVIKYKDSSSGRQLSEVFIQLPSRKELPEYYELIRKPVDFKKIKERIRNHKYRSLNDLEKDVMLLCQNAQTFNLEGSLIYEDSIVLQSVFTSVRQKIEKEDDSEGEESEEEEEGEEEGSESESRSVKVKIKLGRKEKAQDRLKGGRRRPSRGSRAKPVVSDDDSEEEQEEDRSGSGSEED
In short: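 HeLa cells engineered by CRISPR/Cas9 to carry a HiBiT tag fused to the C-terminus of SMARCA4 (Promega CS3023225) were grown in DMEM supplemented with FBS and penicillin-streptomycin. After compound exposure, remaining SMARCA4 protein was quantified using the Nano-Glo® HiBiT Lytic Detection Assay (Promega N3050), and curves were fitted in GraphPad Prism.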

[1] = Hela SMARCA2-HiBiT cells, 24 hours treatment
[2] = Hela SMARCA4-HiBiT cells, 24 hours treatment
[3] = Hela SMARCA4-HiBiT cells, 24 hours treatment, read-out: SMARC A4 Hela HiBit Dmax(%)
[4] = Hela SMARCA4-HiBiT cells, 24 hours treatment, read-out: SMARC A4 Hela HiBit Dmax

| SMILES | DC50 (SMARCA2; [1]) [nM] | Dmax (SMARCA2; [1]) [%] | DC50 (SMARCA4; [2]) [nM] | Dmax (SMARCA4; [3]) [%] | SMARC A2 Hela HiBit Dmax (%) (SMARCA2; [1]) | DC50 (SMARCA2) [nM] | SMARC A4 Hela HiBit Dmax(%) (SMARCA4; [2]) | DC50 (SMARCA4) [nM] | Dmax (SMARCA4; [4]) [%] | Dmax (SMARCA2; HeLa) [%] | Dmax (SMARCA4; HeLa, read-out: SMARC A4 Hela HiBit Dmax(%)) [%] |
| --- | --- | --- | --- | --- | --- | --- | --- | --- | --- | --- | --- |
| Cc1ncsc1-c1ccc([C@H](CN2CCOCC2)NC(=O)[C@@H]2C[C@@H](O)CN2C(=O)[C@@H](n2cc([C@H]3CC[C@H](CN4CCC(c5ncc6c(n5)-n5c(nc(=O)c7c(Br)cccc75)C65CCCCC5)CC4)CC3)nn2)C(C)(C)C)cc1 [Compound A32, (2S,4R)-1-((S)-2-(4-((1r,4S)-4-((4-(4′-bromo-5′-oxo-5′H-spiro[cyclohexane-1,7′-pyrimido[5′,4′: 4,5]pyrrolo[1,2-a]quinazolin]-10′-yl)piperidin-1-yl)methyl)cyclohexyl)-1H-1,2,3-triazol-1-yl)-3,3-dimethylbutanoyl)-4-hydroxy-N—((R)-1-(4-(4-methylthiazol-5-yl)phenyl)-2-morpholinoethyl)pyrrolidine-2-carboxamide] | > 1000 | < 50 | > 1000 | 70 to 90 |  |  |  |  |  |  |  |
| Cc1ncsc1-c1ccc([C@H](CCCCCN2CCC(c3ccc4c(c3)C3(CCCC3)c3nc(=O)c5c(Cl)cccc5n3-4)CC2)NC(=O)[C@@H]2C[C@@H](O)CN2C(=O)[C@@H](NC(=O)C2(F)CC2)C(C)(C)C)cc1 [Compound A2, (2S,4R)—N—((S)-6-(4-(4′-chloro-5′-oxo-5′H-spiro[cyclopentane-1,7′-indolo[1,2-a]quinazolin]-9′-yl)piperidin-1-yl)-1-(4-(4-methylthiazol-5-yl)phenyl)hexyl)-1-((S)-2-(1-fluorocyclopropane-1-carboxamido)-3,3-dimethylbutanoyl)-4-hydroxypyrrolidine-2-carboxamide] | < 100 | > 90 | < 100 | 70 to 90 |  |  |  |  |  |  |  |
| Cc1ncsc1-c1ccc([C@H](CCCCCN2CCC(c3ccc4c(c3)C3(CCCCC3)c3nc(=O)c5c(Br)cccc5n3-4)CC2)NC(=O)[C@@H]2C[C@@H](O)CN2C(=O)[C@@H](NC(=O)C2(F)CC2)C(C)(C)C)cc1 [Compound A4, (2S,4R)—N—((S)-6-(4-(4′-bromo-5′-oxo-5′H-spiro[cyclohexane-1,7′-indolo[1,2-a]quinazolin]-9′-yl)piperidin-1-yl)-1-(4-(4-methylthiazol-5-yl)phenyl)hexyl)-1-((S)-2-(1-fluorocyclopropane-1-carboxamido)-3,3-dimethylbutanoyl)-4-hydroxypyrrolidine-2-carboxamide] | < 100 |  | < 100 |  |  |  |  |  |  | > 90 | > 90 |
| Cc1ncsc1-c1ccc([C@H](CN2CCOCC2)NC(=O)[C@@H]2C[C@@H](O)CN2C(=O)[C@H](C2CCCCC2)n2cc([C@H]3CC[C@H](CN4CCC[C@H](c5ccc6c(c5)-n5c(nc(=O)c7c(Cl)cccc75)C65CCCCC5)C4)CC3)nn2)cc1 [Compound A131, (2S,4R)-1-((2S)-2-(4-((1r,4S)-4-((3-(4′-chloro-5′-oxo-5′H-spiro[cyclohexane-1,7′-indolo[1,2-a]quinazolin]-10′-yl)piperidin-1-yl)methyl)cyclohexyl)-1H-1,2,3-triazol-1-yl)-2-cyclohexylacetyl)-4-hydroxy-N—((R)-1-(4-(4-methylthiazol-5-yl)phenyl)-2-morpholinoethyl)pyrrolidine-2-carboxamide] | 10 to 100 | 70 to 90 | > 1000 |  |  |  |  |  | < 50 |  |  |
| Cc1ncsc1-c1ccc([C@H](CN2CC3(COC3)C2)NC(=O)[C@@H]2C[C@@H](O)CN2C(=O)[C@@H](n2cc([C@H]3CC[C@H](CN4CCC(c5ccc6c(c5)-n5c(nc(=O)c7c(Cl)cccc75)C65CCCCC5)CC4)CC3)nn2)C(C)(C)C)cc1 [Compound A96, (2S,4R)-1-((S)-2-(4-((1r,4S)-4-((4-(4′-chloro-5′-oxo-5′H-spiro[cyclohexane-1,7′-indolo[1,2-a]quinazolin]-10′-yl)piperidin-1-yl)methyl)cyclohexyl)-1H-1,2,3-triazol-1-yl)-3,3-dimethylbutanoyl)-4-hydroxy-N—((R)-1-(4-(4-methylthiazol-5-yl)phenyl)-2-(2-oxa-6-azaspiro[3.3]heptan-6-yl)ethyl)pyrrolidine-2-carboxamide] | < 10 | > 90 | > 1000 |  |  |  |  |  | 50 to 69 |  |  |
| Cc1ncsc1-c1ccc([C@H](C)NC(=O)[C@@H]2C[C@@H](O)CN2C(=O)[C@@H](NC(=O)C23CCC(CN4CCC(c5ccc6c(c5)-n5c(nc(=O)c7c(Br)cccc75)C65CCCCC5)CC4)(CC2)C3)C(C)(C)C)cc1 [Compound A23, (2S,4R)-1-((S)-2-(4-((4-(4′-bromo-5′-oxo-5′H-spiro[cyclohexane-1,7′-indolo[1,2-a]quinazolin]-10′-yl)piperidin-1-yl)methyl)bicyclo[2.2.1]heptane-1-carboxamido)-3,3-dimethylbutanoyl)-4-hydroxy-N—((S)-1-(4-(4-methylthiazol-5-yl)phenyl)ethyl)pyrrolidine-2-carboxamide] |  |  |  | 70 to 90 |  | < 100 |  | 100 to 500 |  | > 90 |  |
| Cc1ncsc1-c1ccc([C@H](CCCCCN2CCC(c3ccc4c(c3)C3(CCCCC3)c3nc(=O)c5c(Br)cccc5n3-4)CC2)NC(=O)[C@H]2C[C@H](O)CN2C(=O)[C@@H](n2cc(C3CC3)nn2)C(C)(C)C)cc1 [Compound A35, (2R,4S)—N—((S)-6-(4-(4′-bromo-5′-oxo-5′H-spiro[cyclohexane-1,7′-indolo[1,2-a]quinazolin]-9′-yl)piperidin-1-yl)-1-(4-(4-methylthiazol-5-yl)phenyl)hexyl)-1-((S)-2-(4-cyclopropyl-1H-1,2,3-triazol-1-yl)-3,3-dimethylbutanoyl)-4-hydroxypyrrolidine-2-carboxamide] | < 100 | > 90 | < 100 | > 90 |  |  |  |  |  |  |  |

Now from value to compound, other results behind:

| DC50 (SMARCA2; [1]) [nM] | Dmax (SMARCA2; [1]) [%] | DC50 (SMARCA4; [2]) [nM] | Dmax (SMARCA4; [3]) [%] | SMARC A2 Hela HiBit Dmax (%) (SMARCA2; [1]) | DC50 (SMARCA2) [nM] | SMARC A4 Hela HiBit Dmax(%) (SMARCA4; [2]) | DC50 (SMARCA4) [nM] | Dmax (SMARCA4; [4]) [%] | SMILES | Dmax (SMARCA2; HeLa) [%] | Dmax (SMARCA4; HeLa, read-out: SMARC A4 Hela HiBit Dmax(%)) [%] |
| --- | --- | --- | --- | --- | --- | --- | --- | --- | --- | --- | --- |
|  |  |  |  | A (A (>90% degradation)) | < 100 | B (B (70-90% degradation)) | 100 to 500 |  | Cc1ncsc1-c1ccc([C@H](CN2CCOCC2)NC(=O)[C@@H]2C[C@@H](O)CN2C(=O)[C@@H](NC(=O)C23CCC(CN4CCC(c5ccc6c(c5)-n5c(nc(=O)c7c(Br)cccc75)C65CCCCC5)CC4)(CC2)C3)C(C)(C)C)cc1 [Compound A24, (2S,4R)-1-((S)-2-(4-((4-(4′-bromo-5′-oxo-5′H-spiro[cyclohexane-1,7′-indolo[1,2-a]quinazolin]-10′-yl)piperidin-1-yl)methyl)bicyclo[2.2.1]heptane-1-carboxamido)-3,3-dimethylbutanoyl)-4-hydroxy-N—((R)-1-(4-(4-methylthiazol-5-yl)phenyl)-2-morpholinoethyl)pyrrolidine-2-carboxamide] |  |  |
| < 10 | > 90 | > 1000 |  |  |  |  |  | 50 to 69 | Cc1ncsc1-c1ccc([C@H](CN2CCOCC2)NC(=O)[C@@H]2C[C@@H](O)CN2C(=O)[C@H](C(C)C)n2cc([C@H]3CC[C@H](CN4CCC(c5ccc6c(c5)-n5c(nc(=O)c7c(Cl)cccc75)C6(C)C)CC4)CC3)nn2)cc1 [Compound A104, (2S,4R)-1-((S)-2-(4-((1r,4S)-4-((4-(4-chloro-7,7-dimethyl-5-oxo-5,7-dihydroindolo[1,2-a]quinazolin-10-yl)piperidin-1-yl)methyl)cyclohexyl)-1H-1,2,3-triazol-1-yl)-3-methylbutanoyl)-4-hydroxy-N-((R)-1-(4-(4-methylthiazol-5-yl)phenyl)-2-morpholinoethyl)pyrrolidine-2-carboxamide] |  |  |
|  |  |  |  | C (C (50-69% degradation)) | > 1000 | D (D (<50% degradation)) | > 1000 |  | Cc1ncsc1-c1ccc([C@H](C)NC(=O)[C@@H]2C[C@@H](O)CN2C(=O)[C@@H](n2cc(-c3ccc(CN4CCC(c5ccc6c(c5)-n5c(nc(=O)c7c(Br)cccc75)C65CCCCC5)CC4)nc3)nn2)C(C)(C)C)cc1 [Compound A66] |  |  |
| < 10 | > 90 | > 1000 |  |  |  |  |  | 50 to 69 | COCCOCCOC[C@H](NC(=O)[C@@H]1C[C@@H](O)CN1C(=O)[C@@H](n1cc([C@H]2CC[C@H](CN3CCC(c4ccc5c(c4)-n4c(nc(=O)c6c(Cl)cccc64)C54CCCCC4)CC3)CC2)nn1)C(C)(C)C)c1ccc(-c2scnc2C)cc1 [Compound A87, (2S,4R)-1-((S)-2-(4-((1r,4S)-4-((4-(4′-chloro-5′-oxo-5′H-spiro[cyclohexane-1,7′-indolo[1,2-a]quinazolin]-10′-yl)piperidin-1-yl)methyl)cyclohexyl)-1H-1,2,3-triazol-1-yl)-3,3-dimethylbutanoyl)-4-hydroxy-N-(®-2-(2-(2-methoxyethoxy)ethoxy)-1-(4-(4-methylthiazol-5-yl)phenyl)ethyl)pyrrolidine-2-carboxamide] |  |  |
